Results reported in US10807992B2, “Single enantiomer antiparasitic compounds” (priority 2017, dated 2020).
Read-outs that look alike come from different tables or passages of the source.

Assay: Plasma PK from oral tick and flea efficacy studies of the C1 racemate
Format: in vivo, Mongrel dogs
Settings: for Cmax / AUC(0-t) / AUC(0-inf) / half-life / CL/F / Tmax: mongrel, dog, po; for Cmax / AUC(0-t) / AUC(0-inf) / half-life / CL/F / Tmax / tlast: plasma; for AUC(0-t): read-out: NCA AUC0-last
Text: However, the S- enantiomer plasma PK curves and calculated PK parameters conducted in beagle dogs differed from oral efficacy studies conducted on the racemate dosed in mongrels.
Pharmacokinetic results from the compound C1 (S) enantiomer PK study differed from racemic efficacy studies. Average plasma pharmacokinetic parameters from the compound C1 (S) enantiomer PK study described in this document are compared to those from oral efficacy studies of the racemate in Table 6.

[1] = 10 mg/kg, Flea Efficacy study, oral 10 mg/kg
[2] = 10 mg/kg, Tick Efficacy study, oral 10 mg/kg
[3] = 20 mg/kg, Flea Efficacy study, oral 20 mg/kg
[4] = 20 mg/kg, Tick Efficacy study, oral 20 mg/kg

O=C(CC(F)(F)F)N1CC2(C1)OCc1cc(C3=NSC(c4cc(Cl)c(F)c(Cl)c4)(C(F)(F)F)C3)ccc12 (racemic) [C1 racemate, 1-[6-[5-(3,5-dichloro-4-fluoro-phenyl)-5-(trifluoromethyl)-4H-isothiazol-3-yl]spiro[1H-isobenzofuran-3,3′-azetidine]-1′-yl]-3,3,3-trifluoro-propan-1-one]
absorption and elimination in dogs (dogs, oral): well-absorbed compound with an extended elimination half-life in dogs
Cmax (10 mg/kg, Mongrel, Flea Efficacy study, oral 10 mg/kg, read-out: Cmax): 3470 ng/mL
AUC(0-t) (10 mg/kg, Mongrel, Flea Efficacy study, oral 10 mg/kg): 266 µg·h/mL
AUC(0-inf) (10 mg/kg, Mongrel, Flea Efficacy study, oral 10 mg/kg, read-out: NCA AUC0-∞): 361 µg·h/mL
half-life (10 mg/kg, Mongrel, Flea Efficacy study, oral 10 mg/kg, read-out: t1/2 (converted)): 23.8 days
Cmax (10 mg/kg, Mongrel, Tick Efficacy study, oral 10 mg/kg, read-out: Cmax): 3780 ng/mL
AUC(0-t) (10 mg/kg, Mongrel, Tick Efficacy study, oral 10 mg/kg): 344 µg·h/mL
AUC(0-inf) (10 mg/kg, Mongrel, Tick Efficacy study, oral 10 mg/kg, read-out: NCA AUC0-∞): 395 µg·h/mL
half-life (10 mg/kg, Mongrel, Tick Efficacy study, oral 10 mg/kg, read-out: t1/2 (converted)): 16.4 days
AUC(0-inf) (10 mg/kg, range over racemate efficacy studies, at 10 mg/kg, read-out: plasma area under the curve extrapolated to infinity (AUC0-∞)): 361 to 395 µg·h/mL
Cmax (10 mg/kg, range over racemate efficacy studies, dosed at 10 mg/kg, read-out: plasma Cmax): 3470 to 3780 ng/mL
CL/F [1]: 0.643 mL/min/kg
Tmax [1]: 0.0417 days
CL/F [2]: 0.502 mL/min/kg
Tmax [2]: 0.125 days
Cmax (20 mg/kg, Mongrel, Flea Efficacy study, oral 20 mg/kg, read-out: Cmax): 4740 ng/mL
AUC(0-t) (20 mg/kg, Mongrel, Flea Efficacy study, oral 20 mg/kg): 463 µg·h/mL
AUC(0-inf) (20 mg/kg, Mongrel, Flea Efficacy study, oral 20 mg/kg, read-out: NCA AUC0-∞): 525 µg·h/mL
half-life (20 mg/kg, Mongrel, Flea Efficacy study, oral 20 mg/kg, read-out: t1/2 (converted)): 14.9 days
Cmax (20 mg/kg, Mongrel, Tick Efficacy study, oral 20 mg/kg, read-out: Cmax): 6240 ng/mL
AUC(0-t) (20 mg/kg, Mongrel, Tick Efficacy study, oral 20 mg/kg): 494 µg·h/mL
AUC(0-inf) (20 mg/kg, Mongrel, Tick Efficacy study, oral 20 mg/kg, read-out: NCA AUC0-∞): 674 µg·h/mL
half-life (20 mg/kg, Mongrel, Tick Efficacy study, oral 20 mg/kg, read-out: t1/2 (converted)): 23.8 days
CL/F [3]: 0.737 mL/min/kg
Tmax [3]: 0.0417 days
CL/F [4]: 0.693 mL/min/kg
Tmax [4]: 0.0833 days
half-life (range over racemate efficacy studies, read-out: half-life): 14.9 to 23.8 days
CL/F (range over racemate efficacy studies): 0.5 to 0.733 mL/min/kg
tlast (Mongrel, Flea Efficacy study, oral 10 mg/kg): 1032 h
tlast (Mongrel, Flea Efficacy study, oral 20 mg/kg): 1032 h
tlast (Mongrel, Tick Efficacy study, oral 10 mg/kg): 1056 h
tlast (Mongrel, Tick Efficacy study, oral 20 mg/kg): 1056 h
